This assay has as its target T1, recombinant human KLK5 (Homo sapiens, UniProt Q9Y337).
T1 construct: purchased Novoprotein or R&D Systems C415 or 1108-SE
T1 sequence (Q9Y337 23-293): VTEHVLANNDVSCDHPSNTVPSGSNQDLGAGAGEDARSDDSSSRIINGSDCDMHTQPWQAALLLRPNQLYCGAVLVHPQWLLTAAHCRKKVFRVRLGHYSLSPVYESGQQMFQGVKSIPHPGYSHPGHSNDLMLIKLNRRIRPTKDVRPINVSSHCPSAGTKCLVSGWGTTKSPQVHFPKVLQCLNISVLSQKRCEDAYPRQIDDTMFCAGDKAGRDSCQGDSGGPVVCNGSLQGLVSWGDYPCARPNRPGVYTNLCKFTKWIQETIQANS
The assay is described as follows: Kallikrein (KLK) 5 enzymatic assay (Boc-VPR-AMC fluorogenic substrate). Format: biochemical. To be noted: recombinant human KLK5 0.1 μg/well, Boc-VPR-AMC 100 μM, pH 7.5, room temperature, 1% DMSO; tested a minimum of three times. The method in brief:
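Recombinant human KLK5 (0.1 μg/well) was preincubated with compound at room temperature in 0.1 M NaH2PO4, pH 7.5, 1% DMSO, then started with 100 μM Boc-VPR-AMC. The rate was followed at 380/460 nm, and IC50 came from percent inhibition relative to enzyme alone, with at least three runs.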
In general, IC50 refers to the concentration that gives 50% inhibition. In the case of `Nc1nccc2c(-c3ccc4c(c3)c(COc3ccccc3CC(=O)O)nn4C3CCOCC3)cccc12` [Compound 282b, 2-(2-((5-(1-aminoisoquinolin-5-yl)-1-(tetrahydro-2H-pyran-4-yl)-1H-indazol-3-yl)methoxy)phenyl)acetic acid], the half-maximal inhibitory concentration (IC50) is < 1 µM.

For the compound `Nc1nccc2ccc(-c3ccc4c(c3)c(COc3ccccc3CC(=O)O)nn4C3CCCOC3)cc12` (centres unmarked) [Compound 283g, 2-(2-((5-(1-aminoisoquinolin-7-yl)-1-(tetrahydro-2H-pyran-3-yl)-1H-indazol-3-yl)methoxy)phenyl)acetic acid], the IC50 is < 1 µM.

Regarding `Nc1nccc2c(-c3ccc4c(c3)c(COc3ccccc3CC(=O)O)nn4C3CCCOC3)cccc12` (centres unmarked) [Compound 284b, 2-(2-((5-(1-aminoisoquinolin-5-yl)-1-(tetrahydro-2H-pyran-3-yl)-1H-indazol-3-yl)methoxy)phenyl)acetic acid], the IC50 is < 1 µM.

As to `Nc1nccc2c(-c3ccc4c(c3)N(Cc3ccccc3CC(=O)O)CC4)cccc12` [Compound 285d, 2-(2-((6-(1-aminoisoquinolin-5-yl)indolin-1-yl)methyl)phenyl)acetic acid], the half-inhibitory concentration (IC50) is 1 to 10 µM. As for `NC(=O)c1cc(-c2cccc3c(N)nccc23)cc2c(COc3ccccc3CC(=O)O)nn(C3CCCCO3)c12` (centres unmarked) [Compound 286a, 2-(2-((5-(1-aminoisoquinolin-5-yl)-7-carbamoyl-1-(tetrahydro-2H-pyran-2-yl)-1H-indazol-3-yl)methoxy)phenyl)acetic acid], the figure is 1 to 10 µM. As for `NCc1cc(-c2cccc3c(N)nccc23)cc2c(COc3ccccc3CC(=O)O)nn(C3CCCCO3)c12` (centres unmarked) [Compound 287a, 2-(2-((5-(1-aminoisoquinolin-5-yl)-7-(aminomethyl)-1-(tetrahydro-2H-pyran-2-yl)-1H-indazol-3-yl)methoxy)phenyl)acetic acid], the figure is 1 to 10 µM; as for `Nc1nccc2ccc(-c3ccc4c(c3)c(COc3cccc(OC(F)(F)F)c3CC(=O)O)nn4C3CCOC3)cc12` (centres unmarked) [Compound 288d, 2-(2-((5-(1-aminoisoquinolin-7-yl)-1-(tetrahydrofuran-3-yl)-1H-indazol-3-yl)methoxy)-6-(trifluoromethoxy)phenyl)acetic acid], < 1 µM; as for `Nc1nccc2c(-c3ccc4c(c3)c(COc3cccc(OC(F)(F)F)c3CC(=O)O)nn4C3CCOC3)cccc12` (centres unmarked) [Compound 289b, 2-(2-((5-(1-aminoisoquinolin-5-yl)-1-(tetrahydrofuran-3-yl)-1H-indazol-3-yl)methoxy)-6-(trifluoromethoxy)phenyl)acetic acid], < 1 µM. As for `Nc1nccc2ccc(-c3ccc4c(c3)c(COc3cccc(C5CC5)c3CC(=O)O)nn4C3CCOC3)cc12` (centres unmarked) [Compound 290d, 2-(2-((5-(1-aminoisoquinolin-7-yl)-1-(tetrahydrofuran-3-yl)-1H-indazol-3-yl)methoxy)-6-cyclopropylphenyl)acetic acid], the figure is < 1 µM; as for `Nc1nccc2c(-c3ccc4c(c3)c(COc3cccc(C5CC5)c3CC(=O)O)nn4C3CCOC3)cccc12` (centres unmarked) [Compound 291b, 2-(2-((5-(1-aminoisoquinolin-5-yl)-1-(tetrahydrofuran-3-yl)-1H-indazol-3-yl)methoxy)-6-cyclopropylphenyl)acetic acid], < 1 µM; as for `N#Cc1cccc(OCc2nn(C3CCOC3)c3ccc(-c4ccc5ccnc(N)c5c4)cc23)c1CC(=O)O` (centres unmarked) [Compound 292d, 2-(2-((5-(1-aminoisoquinolin-7-yl)-1-(tetrahydrofuran-3-yl)-1H-indazol-3-yl)methoxy)-6-cyanophenyl)acetic acid], 1 to 10 µM. Take `N#Cc1cccc(OCc2nn(C3CCOC3)c3ccc(-c4cccc5c(N)nccc45)cc23)c1CC(=O)O` (centres unmarked) [Compound 293b, 2-(2-((5-(1-aminoisoquinolin-5-yl)-1-(tetrahydrofuran-3-yl)-1H-indazol-3-yl)methoxy)-6-cyanophenyl)acetic acid]: the IC50 was < 1 µM. For `Cc1cccc(OCc2cn(C3CCOC3)c3ncc(-c4cccc5c(N)nccc45)cc23)c1CC(=O)O` (centres unmarked) [Compound 294c, 2-(2-((5-(1-aminoisoquinolin-5-yl)-1-(tetrahydrofuran-3-yl)-1H-pyrrolo[2,3-b]pyridin-3-yl)methoxy)-6-methylphenyl)acetic acid] the value was < 1 µM.

For `Nc1nccc2ccc(-c3ccc4c(c3)c(COc3ccccc3CC(=O)O)nn4CC3CNC3)cc12` [Compound 295c, 2-(2-((5-(1-aminoisoquinolin-7-yl)-1-(azetidin-3-ylmethyl)-1H-indazol-3-yl)methoxy)phenyl)acetic acid], the IC50 was < 1 µM. Turning to `Nc1nccc2c(-c3ccc4c(c3)c(COc3ccccc3CC(=O)O)nn4CC3CNC3)cccc12` [Compound 296b, 2-(2-((5-(1-aminoisoquinolin-5-yl)-1-(azetidin-3-ylmethyl)-1H-indazol-3-yl)methoxy)phenyl)acetic acid], the IC50 is < 1 µM. As for `Nc1nccc2ccc(-c3ccc4c(c3)c(COc3ccccc3CC(=O)O)nn4C3CCN(CC(=O)O)C3)cc12` (centres unmarked) [Compound 297d, 2-(2-((5-(1-aminoisoquinolin-7-yl)-1-(1-(carboxymethyl)pyrrolidin-3-yl)-1H-indazol-3-yl)methoxy)phenyl)acetic acid], the figure is < 1 µM. As for `Nc1nccc2c(-c3ccc4c(c3)c(COc3ccccc3CC(=O)O)nn4C3CCN(CCO)C3)cccc12` (centres unmarked) [Compound 298c, 2-(2-((5-(1-aminoisoquinolin-5-yl)-1-(1-(2-hydroxyethyl)pyrrolidin-3-yl)-1H-indazol-3-yl)methoxy)phenyl)acetic acid], the figure is < 1 µM; as for `Nc1nccc2ccc(-c3ccc4c(c3)c(COc3ccccc3CC(=O)O)nn4C3CCN(CCO)C3)cc12` (centres unmarked) [Compound 299b, 2-(2-((5-(1-aminoisoquinolin-7-yl)-1-(1-(2-hydroxyethyl)pyrrolidin-3-yl)-1H-indazol-3-yl)methoxy)phenyl)acetic acid], < 1 µM; as for `COc1c(CN)cccc1-c1cc2c(COc3ccccc3CC(=O)O)cccc2o1` [Compound 300d, 2-(2-((2-(3-(aminomethyl)-2-methoxyphenyl)benzofuran-4-yl)methoxy)phenyl)acetic acid], > 10 µM. On to `Nc1nccc2c(-c3ccc4c(c3)c(C#Cc3ccccc3CC(=O)O)cn4C3CCOC3)cccc12` (centres unmarked) [Compound 301f, 2-(2-((5-(1-aminoisoquinolin-5-yl)-1-(tetrahydrofuran-3-yl)-1H-indol-3-yl)ethynyl)phenyl)acetic acid], for which the IC50 was < 1 µM.

`Nc1nccc2c(-c3ccc4c(c3)c(CCc3ccccc3CC(=O)O)cn4C3CCOC3)cccc12` (centres unmarked) [Compound 302b, 2-(2-(2-(5-(1-aminoisoquinolin-5-yl)-1-(tetrahydrofuran-3-yl)-1H-indol-3-yl)ethyl)phenyl)acetic acid]: the IC50 was < 1 µM. As for `COCCN1CCC(n2nc(COc3ccccc3CC(=O)O)c3cc(-c4cccc5c(N)nccc45)ccc32)C1` (centres unmarked) [Compound 303c, 2-(2-((5-(1-aminoisoquinolin-5-yl)-1-(1-(2-methoxyethyl)pyrrolidin-3-yl)-1H-indazol-3-yl)methoxy)phenyl)acetic acid], the figure is < 1 µM; as for `COCCN1CCC(n2nc(COc3ccccc3CC(=O)O)c3cc(-c4ccc5ccnc(N)c5c4)ccc32)C1` (centres unmarked) [Compound 304b, 2-(2-((5-(1-aminoisoquinolin-7-yl)-1-(1-(2-methoxyethyl)pyrrolidin-3-yl)-1H-indazol-3-yl)methoxy)phenyl)acetic acid], < 1 µM. For `Nc1nccc2c(-c3ccc4c(c3)c(COc3ccccc3CC(=O)O)nn4C3CCN(CC(=O)O)C3)cccc12` (centres unmarked) [Compound 305b, 2-(2-((5-(1-aminoisoquinolin-5-yl)-1-(1-(carboxymethyl)pyrrolidin-3-yl)-1H-indazol-3-yl)methoxy)phenyl)acetic acid] the value was < 1 µM.

On to `COCCN1CC(Cn2nc(COc3ccccc3CC(=O)O)c3cc(-c4ccc5ccnc(N)c5c4)ccc32)C1` [Compound 306c, 2-(2-((5-(1-aminoisoquinolin-7-yl)-1-((1-(2-methoxyethyl)azetidin-3-yl)methyl)-1H-indazol-3-yl)methoxy)phenyl)acetic acid], for which the half-inhibitory concentration (IC50) is < 1 µM. As for `CC(C)CCN1CC(Cn2nc(COc3ccccc3CC(=O)O)c3cc(-c4ccc5ccnc(N)c5c4)ccc32)C1` [Compound 307c, 2-(2-((5-(1-aminoisoquinolin-7-yl)-1-((1-isopentylazetidin-3-yl)methyl)-1H-indazol-3-yl)methoxy)phenyl)acetic acid], the figure is < 1 µM; as for `CC(C)CCN1CC(Cn2nc(COc3ccccc3CC(=O)O)c3cc(-c4cccc5c(N)nccc45)ccc32)C1` [Compound 308b, 2-(2-((5-(1-aminoisoquinolin-5-yl)-1-((1-isopentylazetidin-3-yl)methyl)-1H-indazol-3-yl)methoxy)phenyl)acetic acid], < 1 µM. As for `CC(C)CCN1CCC(n2nc(COc3ccccc3CC(=O)O)c3cc(-c4ccc5ccnc(N)c5c4)ccc32)C1` (centres unmarked) [Compound 309c, 2-(2-((5-(1-aminoisoquinolin-7-yl)-1-(1-isopentylpyrrolidin-3-yl)-1H-indazol-3-yl)methoxy)phenyl)acetic acid], the figure is < 1 µM. Turning to `CCOC(=O)N1CCC(n2nc(COc3ccccc3CC(=O)O)c3cc(-c4ccc5ccnc(N)c5c4)ccc32)C1` (centres unmarked) [Compound 310c, 2-(2-((5-(1-aminoisoquinolin-7-yl)-1-(1-(ethoxycarbonyl)pyrrolidin-3-yl)-1H-indazol-3-yl)methoxy)phenyl)acetic acid], the IC50 is < 1 µM.

Source of the values: patent US20240239752A1, “BICYCLIC HETEROAROMATIC INHIBITORS OF KLK5” (BioCryst Pharmaceuticals, Inc., priority 2021, published 2024).
